Assay results published in paper PMC6753110, “Fragment-based discovery of the first nonpeptidyl inhibitor of an S46 family peptidase” (Scientific Reports, 2019).
“And” between values parts separate entries of the source, which are not always exact repeats. Equal values may be shown once. Read-outs that look alike come from different tables or passages of the source.

How the values were obtained:
[1] = test system: ClC-2; design: method as in ref [1] of Table S1; details: Rat, UniProt P35525; ref [1] of Table S1; cited from earlier work
[2] = test system: P. gingivalis strain W83; assay: Antibacterial assay, growth of P. gingivalis (OD 600 nm); format: cell-based; details: Porphyromonas gingivalis; for IC50: strain W83, optical density at 600 nm, 48 h anaerobic, read-out: IC50, inhibition of growth of P. gingivalis
Procedure: (§1) The inhibitory effects of SH-5 and the lipophilic analog NPPB against growth of P. gingivalis strain W83 were evaluated by monitoring optical density at 600 nm (Fig. 6, closed squares). […] The maximal percent inhibition values for SH-5 and NPPB were 68% at 1 mM and 99% at 100 μM, respectively.
(§2) Antibacterial assays against P. gingivalis strain W83 and E. coli strain K12 were performed as previously described[62],[63]. P. gingivalis cells were cultured in anaerobic bacterium culture medium (ABCM, Eiken Chemical, Tokyo, Japan) containing 0.001% menadione under anaerobic conditions at 37 °C for 48 h. E. coli cells were grown in M9 medium with 1% glucose with shaking at 37 °C for 24 h. All compounds were dissolved in DMSO at stock concentrations of 100 mM. […] Growth of P. gingivalis and E. coli with compounds was determined as the optical density at 600 nm after incubation.

[3] = molecular target: PgDPP7 (Porphyromonas gingivalis, UniProt Q7MWU6); assay: Inhibition of PgDPP7 enzymatic activity on Met-Leu-MCA; format: biochemical; details: for remaining activity at 100 µM: read-out: Residual activity (%)
PgDPP7, sequence (Q7MWU6 entry or part of it): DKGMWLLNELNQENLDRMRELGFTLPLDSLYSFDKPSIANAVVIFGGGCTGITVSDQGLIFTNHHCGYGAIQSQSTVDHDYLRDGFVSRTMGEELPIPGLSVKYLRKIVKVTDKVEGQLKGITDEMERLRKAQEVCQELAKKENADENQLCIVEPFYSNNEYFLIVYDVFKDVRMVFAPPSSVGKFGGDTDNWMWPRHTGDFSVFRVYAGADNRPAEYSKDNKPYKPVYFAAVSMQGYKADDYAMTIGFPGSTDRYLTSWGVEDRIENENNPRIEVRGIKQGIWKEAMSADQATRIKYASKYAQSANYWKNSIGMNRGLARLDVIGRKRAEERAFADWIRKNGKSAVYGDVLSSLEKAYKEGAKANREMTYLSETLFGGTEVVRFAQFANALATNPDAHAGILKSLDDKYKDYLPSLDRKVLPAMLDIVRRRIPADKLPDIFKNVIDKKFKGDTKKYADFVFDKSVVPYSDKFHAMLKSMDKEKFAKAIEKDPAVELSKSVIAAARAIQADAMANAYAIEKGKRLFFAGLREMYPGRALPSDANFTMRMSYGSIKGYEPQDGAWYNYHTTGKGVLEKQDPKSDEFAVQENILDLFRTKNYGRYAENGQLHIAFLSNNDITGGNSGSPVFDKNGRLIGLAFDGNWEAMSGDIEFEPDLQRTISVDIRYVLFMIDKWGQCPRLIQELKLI
Description: (§3) To examine whether SH-5 is a universal inhibitor of S46 peptidases or is specific for PgDPP11, we evaluated the inhibitory effects of SH-5 against PgDPP7. In addition, the inhibitory effects of SH-5 against DPP7 and DPP11 from Stenotrophomonas maltophilia (SmDPP7 and SmDPP11, respectively) were also examined as another reference set of S46 peptidases in the same organism.
(§4) Thirteen of fifteen final candidate compounds from the in silico screening described above were purchased from Namiki Shoji Co., Ltd. (Tokyo, Japan). Half-maximal inhibitory concentration (IC50) values were determined by fitting to a sigmoidal curve (4-parameter logistic curve) using ImageJ[60] Competitive inhibition rates were measured using different concentrations of each inhibitor in a reaction buffer containing 50 mM sodium phosphate buffer (pH 8.0), 5 mM EDTA and 0.005% Tween 20 at 298 K for 20 min and using 100 µM Leu-Asp-MCA (4-methylcoumaryl-7-amide) as the substrate for DPP11s. For DPP7s, 100 µM Met-Leu-MCA was used as the substrate. The concentrations of PgDPP11, PgDPP7, SmDPP11 and SmDPP7 were 1, 10, 0.5 and 5 nM, respectively. The inhibitor concentrations were 1000, 500, 250, 125, 62.5, 31.3 and 15.6 µM. Standard deviations were calculated from three independent experiments. Fluorescence intensity was measured with excitation at 355 nm and emission at 460 nm using an Infinite 200 PRO microplate reader. Inhibition constants (Ki) were calculated using the Cheng-Prusoff equation[61].

[4] = test system: BEST-1; design: method as in ref [7] of Table S1; details: Mouse, UniProt O88870; ref [7] of Table S1; cited from earlier work
[5] = test system: ClC-6; design: method as in ref [3] of Table S1; details: Human, UniProt P51797; ref [3] of Table S1; cited from earlier work
[6] = molecular target: T1, PgDPP11 (Porphyromonas gingivalis, UniProt B2RID1); assay: Inhibition of PgDPP11 enzymatic activity on Leu-Asp-MCA; format: biochemical; details: for Ki: Cheng-Prusoff equation; for remaining activity at 100 µM: inhibitor and synthetic substrate (Leu-Asp-MCA) 100 µM, 100% = activity without inhibitor, read-out: Residual activity (%)
T1 construct: signal peptide of DAP BIII (Pseudoxanthomonas mexicana WO24) (N, cleaved yes); made in house; host or cells: E. coli BL21 Gold(DE3), pET22b
T1 sequence (B2RID1 22-720): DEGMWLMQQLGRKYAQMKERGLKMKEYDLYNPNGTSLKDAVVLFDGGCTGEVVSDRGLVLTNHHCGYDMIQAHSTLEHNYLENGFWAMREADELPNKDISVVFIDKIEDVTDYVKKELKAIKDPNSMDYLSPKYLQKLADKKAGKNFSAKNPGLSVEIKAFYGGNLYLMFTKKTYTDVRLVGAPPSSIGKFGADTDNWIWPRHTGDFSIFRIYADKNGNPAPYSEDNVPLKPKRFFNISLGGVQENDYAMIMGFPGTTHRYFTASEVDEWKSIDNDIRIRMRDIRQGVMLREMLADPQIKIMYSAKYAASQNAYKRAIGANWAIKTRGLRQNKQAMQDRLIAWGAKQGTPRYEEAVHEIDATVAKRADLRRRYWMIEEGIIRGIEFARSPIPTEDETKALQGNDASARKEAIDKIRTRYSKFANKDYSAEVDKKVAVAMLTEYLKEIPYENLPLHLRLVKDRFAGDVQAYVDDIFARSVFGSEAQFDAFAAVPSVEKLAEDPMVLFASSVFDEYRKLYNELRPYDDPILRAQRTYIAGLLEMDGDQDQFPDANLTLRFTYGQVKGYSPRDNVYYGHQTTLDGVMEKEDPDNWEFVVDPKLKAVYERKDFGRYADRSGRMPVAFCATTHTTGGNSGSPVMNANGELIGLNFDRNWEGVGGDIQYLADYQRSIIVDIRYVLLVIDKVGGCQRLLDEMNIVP
Procedure: We evaluated the inhibitory effects of the 13 commercially available candidate compounds obtained by the in silico screening described above against the enzymatic activity of PgDPP11 on the synthetic substrate Leu-Asp-MCA (4-methylcoumaryl-7-amide) (Fig. 5). Each compound was first tested at a concentration of 100 μM.
Figure 5 Inhibitory effects of 13 candidate compounds obtained by multifilter in silico screening. […] Standard deviations were obtained from three independent experiments.
as §4

[7] = test system: ANO-1; design: method as in ref [5] of Table S1; details: Mouse, UniProt Q8BHY3; ref [5] of Table S1; cited from earlier work
[8] = molecular target: SmDPP7 (Stenotrophomonas maltophilia, UniProt B4SLK2); assay: Inhibition of SmDPP7 enzymatic activity on Met-Leu-MCA; format: biochemical; details: for remaining activity at 100 µM: read-out: Residual activity (%)
SmDPP7, sequence (B4SLK2 entry or part of it): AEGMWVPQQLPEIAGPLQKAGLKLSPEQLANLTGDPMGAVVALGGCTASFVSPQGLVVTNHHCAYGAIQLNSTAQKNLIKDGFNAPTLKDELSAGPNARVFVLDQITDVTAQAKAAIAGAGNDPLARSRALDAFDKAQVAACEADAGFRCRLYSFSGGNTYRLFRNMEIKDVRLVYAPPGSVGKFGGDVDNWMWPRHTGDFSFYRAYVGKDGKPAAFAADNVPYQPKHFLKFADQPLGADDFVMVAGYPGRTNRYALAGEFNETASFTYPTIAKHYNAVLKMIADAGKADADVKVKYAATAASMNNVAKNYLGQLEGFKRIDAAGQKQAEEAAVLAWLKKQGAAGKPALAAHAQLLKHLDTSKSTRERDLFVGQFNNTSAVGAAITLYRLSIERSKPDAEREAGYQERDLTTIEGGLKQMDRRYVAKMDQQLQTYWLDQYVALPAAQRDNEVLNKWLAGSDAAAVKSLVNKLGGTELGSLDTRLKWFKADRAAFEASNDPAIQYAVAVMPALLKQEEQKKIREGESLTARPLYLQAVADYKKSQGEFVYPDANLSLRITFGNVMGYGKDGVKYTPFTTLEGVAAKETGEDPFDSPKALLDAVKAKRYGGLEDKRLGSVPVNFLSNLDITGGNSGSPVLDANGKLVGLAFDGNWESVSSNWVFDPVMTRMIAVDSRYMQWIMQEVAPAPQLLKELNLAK
Description: as §3, §4

[9] = test system: ClC-5; design: method as in ref [2] of Table S1; details: Mouse, UniProt Q9WVD4; ref [2] of Table S1; cited from earlier work
[10] = molecular target: SmDPP11 (Stenotrophomonas maltophilia, UniProt B4SNQ8); assay: Inhibition of SmDPP11 enzymatic activity on Leu-Asp-MCA; format: biochemical; details: for Ki / remaining activity at 100 µM: SmDPP11; for Ki: Cheng-Prusoff equation, 100 µM Leu-Asp-MCA; for remaining activity at 100 µM: inhibitor and synthetic substrate (Leu-Asp-MCA) 100 µM, 100% = activity without inhibitor, read-out: Residual activity (%)
SmDPP11, sequence (B4SNQ8 24-715 limits assumed): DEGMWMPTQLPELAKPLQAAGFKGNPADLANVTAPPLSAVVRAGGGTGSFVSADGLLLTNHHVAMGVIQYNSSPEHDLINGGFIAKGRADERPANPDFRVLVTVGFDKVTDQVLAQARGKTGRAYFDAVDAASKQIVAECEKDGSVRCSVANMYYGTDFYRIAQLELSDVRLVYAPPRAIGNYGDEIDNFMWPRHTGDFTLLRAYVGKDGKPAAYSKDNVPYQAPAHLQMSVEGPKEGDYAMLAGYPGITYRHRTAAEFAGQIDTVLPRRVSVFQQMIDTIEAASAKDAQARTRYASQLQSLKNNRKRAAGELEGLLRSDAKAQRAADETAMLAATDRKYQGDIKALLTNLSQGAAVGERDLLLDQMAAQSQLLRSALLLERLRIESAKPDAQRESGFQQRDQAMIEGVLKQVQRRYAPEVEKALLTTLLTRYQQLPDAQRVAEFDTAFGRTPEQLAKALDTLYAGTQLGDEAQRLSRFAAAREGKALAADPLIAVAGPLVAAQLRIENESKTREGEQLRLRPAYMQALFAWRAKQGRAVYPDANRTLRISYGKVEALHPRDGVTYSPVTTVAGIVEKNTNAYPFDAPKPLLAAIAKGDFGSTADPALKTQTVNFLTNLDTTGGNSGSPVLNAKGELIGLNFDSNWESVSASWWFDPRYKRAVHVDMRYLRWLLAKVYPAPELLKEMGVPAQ
Description: as §3, §4

[11] = test system: ClC-7; design: method as in ref [4] of Table S1; details: Human, UniProt P51798; ref [4] of Table S1; cited from earlier work
[12] = test system: E. coli strain K12; assay: Antibacterial assay, growth of E. coli (OD 600 nm); format: cell-based; details: at the concentrations used for the inhibition of P. gingivalis growth
Procedure: as §1, §2

[13] = test system: ClC-ec1; design: method as in PMID 23177200; details: cited from earlier work
[14] = test system: CFTR; design: method as in ref [8] of Table S1; details: Xenopus, UniProt P26363; ref [8] of Table S1; cited from earlier work
[15] = test system: ANO-2; design: method as in ref [6] of Table S1; details: Mouse, UniProt Q8CFW1; ref [6] of Table S1; cited from earlier work

Row | Compound | IC50 [2] | inhibitory effect against PgDPP7 (in words) [3] | inhibitory effect against PgDPP11 (in words) [6] | Ki ([6]; PgDPP11, 100 µM Leu-Asp-MCA) | remaining activity at 100 µM ([6]; PgDPP11) | inhibitory effect against SmDPP7 (in words) [8] | inhibitory effect against SmDPP11 (in words) [10] | Ki [10] | remaining activity at 100 µM [10] | toxicity toward E. coli (growth) [12] | further results
1 | O=C(O)c1cc([N+](=O)[O-])ccc1NCCCc1ccccc1 [NPPB, 5-nitro-2-(3-phenylpropylamino)benzoic acid] | 6 µM | inactive | significant inhibitory effects | ~15 µM and 15 µM | 70.3 ± 0.7% | inactive | significant inhibitory effects | 84.8 ± 3.1 µM | 67.7 ± 0.6% | not toxic | inhibition of ClC-2 [1]: inhibited; inhibition at 100 µM ([2]; P. gingivalis W83, at 100 μM, read-out: maximal percent inhibition of growth): 99%; remaining activity at 100 µM [3]: 159 ± 5%; inhibition of BEST-1 [4]: inhibited; inhibition of ClC-6 [5]: inhibited; inhibition of ANO-1 [7]: inhibited; remaining activity at 100 µM [8]: 119 ± 0.3%; inhibition of ClC-5 [9]: inhibited; inhibition of ClC-7 [11]: inhibited; inhibition of ClC-ec1 protein [13]: not be inhibited; inhibition of CFTR [14]: inhibited; inhibition of ANO-2 [15]: inhibited
2 | NCCNc1ccc([N+](=O)[O-])cc1C(=O)O [SH-5, 2-[(2-aminoethyl)amino]-5-nitrobenzoic acid] | 687 µM | significant inhibitory effects | significant inhibitory effects | ~8.45 µM and 8.45 µM | 62.9 ± 0.1% | significant inhibitory effects | significant inhibitory effects | 24.9 ± 0.5 µM | 48 ± 1.1% | not toxic | inhibition at 1000 µM ([2]; P. gingivalis W83, at 1 mM, read-out: maximal percent inhibition of growth): 68%; Ki ([3]; PgDPP7, Cheng-Prusoff equation, 100 µM Met-Leu-MCA): 52.2 ± 3.3 µM; remaining activity at 100 µM ([3]; PgDPP7, inhibitor and synthetic substrate (Met-Leu-MCA) 100 µM, 100% = activity without inhibitor): 54.4 ± 0.7%; inhibition at 100 µM ([6]; compound tested at 100 μM, substrate Leu-Asp-MCA, read-out: inhibitory effect against PgDPP11): > 30%; ligand efficiency (LE) ([6]; roughly calculated as LE = 1.37pIC50/HA): 0.346; Ki ([8]; SmDPP7, Cheng-Prusoff equation, 100 µM Met-Leu-MCA): 36.6 ± 1.3 µM; remaining activity at 100 µM ([8]; SmDPP7, inhibitor and synthetic substrate (Met-Leu-MCA) 100 µM, 100% = activity without inhibitor): 72.8 ± 0.7%
3 | NC(=O)c1ccc(SCC(=O)O)c([N+](=O)[O-])c1 [SH-5_3, 2-(4-carbamoyl-2-nitrophenyl)sulfanylacetic acid] |  |  | significant but relatively weak inhibitory effect |  |  |  |  |  |  |  | IC50 ([6]; PgDPP11, dose-response 15.6-1000 μM, 100 µM Leu-Asp-MCA): ~1070 µM
